This passage reports IC50 and inhibition in vivo results from ChEMBL document CHEMBL2069167, “Synthesis and structure-activity relationship of (1-halo-2-naphthyl) carbamate-based inhibitors of KIAA1363 (NCEH1/AADACL1)” (Bioorg Med Chem Lett, 2012).

Assay [1] addresses T1, Neutral cholesterol ester hydrolase 1 (Homo sapiens, UniProt Q6PIU2).
T1 sequence (Q6PIU2 whole entry): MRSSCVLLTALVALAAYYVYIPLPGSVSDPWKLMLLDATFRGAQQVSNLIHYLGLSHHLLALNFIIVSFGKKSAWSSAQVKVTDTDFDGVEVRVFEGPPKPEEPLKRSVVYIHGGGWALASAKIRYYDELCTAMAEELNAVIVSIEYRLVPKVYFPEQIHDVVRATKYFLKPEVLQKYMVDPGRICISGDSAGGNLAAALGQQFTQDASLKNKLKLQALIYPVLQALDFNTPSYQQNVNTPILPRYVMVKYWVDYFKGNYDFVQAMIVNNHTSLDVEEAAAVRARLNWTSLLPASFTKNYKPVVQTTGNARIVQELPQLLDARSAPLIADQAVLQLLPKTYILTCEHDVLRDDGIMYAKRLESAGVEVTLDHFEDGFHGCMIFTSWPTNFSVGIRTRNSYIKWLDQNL
The assay can be described thus: Inhibition of human KIAA1363 expressed in 293T/17 cells using 2-thioacetyl MAGE as substrate preincubated for 20 mins measured after 1 hr. The assay is classed as cell-based.

In assay [2] the test system is Mus musculus. Nature of the assay: Inhibition of KIAA1363 in tumor of SCID mouse xenografted with human SK-OV-3 cells at 100 mg/kg, po after 2 hrs by fluorescence assay. In kind it is functional. The following applies: SK-OV-3, 2 h. (A xenograft is tissue or cells of one species grown in another, often human tumour cells in immunodeficient mice.)
Assay [3] concerns Mus musculus. The assay can be described thus: Inhibition of KIAA1363 in tumor of SCID mouse xenografted with human SK-OV-3 cells at 100 mg/kg, ip after 2 hrs by fluorescence assay. In kind it is functional. The following applies: SK-OV-3, ip, route intraperitoneal.
The test system of assay [4] is Mus musculus. The assay can be described thus: Inhibition of KIAA1363 in heart of SCID mouse at 100 mg/kg, ip after 2 hrs by fluorescence assay. The assay is classed as functional. The note with it: route intraperitoneal.

The structures appear in SMILES notation.

Take `CN(C)C(=O)Oc1ccc2ccccc2c1C#N`: the half-inhibitory concentration (IC50) (in general, the concentration at which inhibition is half-maximal) in assay [1] was more than 100 µM.
For the compound `CN(C)C(=O)Oc1ccc2ccccc2c1Cl`, in assay [1], inhibition was half-maximal at 1.1 µM (IC50).
For `CN(C)C(=O)Oc1ccc2cc(C#N)ccc2c1Br`, 100 mg/kg produced 14% inhibition in vivo in the assay with Mus musculus [2].
`CCCc1ccc2c(Br)c(OC(=O)N(C)C)ccc2c1`: the inhibition in vivo (usually how much of the control response was suppressed) at 100 mg/kg turned out to be 22% with Mus musculus [2], 64% in the assay with Mus musculus [3] and 66% in the assay with Mus musculus [4].
In assay [1], `CN(C)C(=O)Oc1ccccc1Br` registered an IC50 of more than 100 µM.
On to `CN(C)C(=O)Oc1ccc2ccccc2c1` [NAPHTHALEN-2-YL DIMETHYLCARBAMATE], for which, in assay [1], the IC50 is more than 100 µM.
Regarding `CN(C)C(=O)Oc1ccc2cc(Br)ccc2c1Br`, the inhibition in vivo at 100 mg/kg in the assay on Mus musculus [2] amounted to 18%.
